Legend:
NCI-H1581 = assay: Anti-proliferative effect in NCI-H1581 (CellTiter-Glo); type: cell-based; details: NCI-H1581, 3 days; for IC50: Homo sapiens, 72 h
Protocol: This assay studied the inhibitory effect of the compounds on cell proliferation by detecting the effect of the test compounds on the in vitro activity of tumor cells NCI-H1581, DMS114, NCI-H69 and NCI-H526.
The tumor cell lines were cultured in an incubator at 37° C., 5% CO2 or 0% CO2 according to the above culture conditions. The cells were periodically passaged, and cells in logarithmic growth phase were taken for plating. • 2. Cell plating • (1). Cells were stained with trypan blue and viable cells were counted.
• (3). 100 μL of cell suspension was added to each well of the culture plate, and culture medium without cells was added to the blank control well. • (4). The plate was incubated overnight in an incubator at 37° C., 5% CO2 or 0% CO2, and 100% relative humidity. • 3. Preparation of compound stock solution
Preparation of 1000× compound stock solution: Compound was dissolved in DMSO to 10 mM, then a portion was taken out and diluted to 1000 times the highest acting concentration. The diluted stock solution was dispensed for later use. • 4. Preparation of 5× compound working solution and treatment of cells with compounds. The working solutions were prepared freshly at each time for use. • (1). Preparation of 5× compound working solution: 119.4 μL of cell culture medium was added to a 96-well plate with a V-shaped bottom. 96 μL of DMSO-cell culture medium mix solution (with DMSO content of 0.5%) was added to subsequent gradient wells. 0.6 μL of the compound from the 1000× compound stock solution was added to the cell culture medium in the 96-well plate, and mixed to uniform with a pipette. A pipette was used to draw 24 μL of the compound-cell culture medium mixture into subsequent wells, and the mixture was mixed well by a pipette each time. • (2). Dosing: 25 μL of 5× compound working solution was added to the cell culture plate. 25 μL of DMSO-cell culture medium mix solution (with DMSO content of 0.5%) was added to the vehicle control and blank control. • (3). The 96-well cell plate was placed back into the incubator and cultured for 3 days. • 5. CellTiter-Glo luminescence cell viability detection
The following steps were performed according to the instruction of Promega CellTiter-Glo luminescence cell viability detection kit (Promega-G7573). • (1). The CellTiter-Glo buffer was thawed and allowed to stand to reach room temperature; • (2). CellTiter-Glo substrate was allowed to stand to reach room temperature; • (3). 10 mL of CellTiter-Glo buffer was added to CellTiter-Glo substrate in a bottle to dissolve the substrate to formulate CellTiter-Glo working solution; • (4). […] The culture plates were left at room temperature for 10 minutes to stabilize the luminescence signal; • (9). The luminous signal was detected on the 2104 En Vision plate reader. • 6. […]

[1] = Pharmacokinetics of the compound in rats; type: in vivo, SD rats
Source text: In this study, SD male rats were selected as the test animals, and the LC/MS/MS method was used to quantitatively determine the drug concentration at different time points in the plasma of rats intravenously or orally administered the test compound, so as to evaluate the pharmacokinetic profile of the test compound in rats.
Sprague Dawley (SD) rats (male, 200-300 g, 7-10 weeks old, Beijing Vital River).
A clear solution or suspension of the test compound was intravenously injected into SD rats (fasted overnight) via tail or given to SD rats (fasted overnight) by gavage. For intravenous injection administration, blood was collected from the jugular vein at 0 h (before administration) and 0.083, 0.25, 0.5, 1, 2, 4, 6, 8, and 24 h after administration. Each sample was collected about 0.25 mL. Heparin sodium was added to anti-coagulate. Blood samples were collected and placed on wet ice, and centrifuged within 1 hour to separate the plasma (centrifugation conditions: 6000 g, 3 minutes, 2-8° C.). Plasma samples were stored in a −80° C. refrigerator before analysis; For oral gavage administration, blood was collected from the jugular vein at 0 h (before administration) and 0.083, 0.25, 0.5, 1, 2, 4, 6, 8, and 24 h after administration. Each sample was collected about 0.25 mL. Heparin sodium was added to anti-coagulate. Blood samples were collected and placed on wet ice, and centrifuged within 1 hour to separate the plasma (centrifugation conditions: 6000 g, 3 minutes, 2-8° C.). Plasma samples were stored in an −80° C. refrigerator before analysis. Through blood drug concentration data at different time points, Phoenix WinNonlin8.2.0 was used to calculate pharmacokinetic parameters, providing parameters such as AUC0-t, AUC0-∞, MRT0-∞, Cmax, Tmax, and T1/2, etc. and their mean and standard deviation.

[2] = administration by gavage (10 mg/kg)

IC50 (NCI-H1581)	Area under the plasma concentration-time curve (0-inf) [1, 2]	Peak concentration [1, 2]	Time to peak [1, 2]	Area under the plasma concentration-time curve (0-inf) ([1]; intravenous injection (2 mg/kg))	bioavailability ([1]; male, Sprague-Dawley, rat, plasma, PO 10 mg/kg vs IV 2 mg/kg, read-out: Bioavailability F)	clearance ([1]; male, Sprague-Dawley, rat, plasma, intravenous injection (2 mg/kg))	Vd ([1]; male, Sprague-Dawley, rat, plasma, intravenous injection (2 mg/kg), read-out: Apparent volume of distribution)	half-life ([1]; male, Sprague-Dawley, rat, plasma, intravenous injection (2 mg/kg), read-out: Elimination half-life (converted))	SMILES	Max. IR (NCI-H1581)
1.3 nM	–	–	–	–	–	–	–	–	COCCOc1cc(NC(=O)NCc2ccc3c(C4CCC(=O)NC4=O)noc3c2)cc(Cl)c1C (stereo not drawn) [WX013]	88.62%
5.2 nM	264.34 µM·h	14.4 µM	5.33 h	464.10 µM·h	11.4%	0.145 mL/min/kg	0.121 L/kg	11.1 h	COCCOc1cc(NC(=O)NCc2ccc3c(C4CCC(=O)NC4=O)coc3c2)cc(Cl)c1C (stereo not drawn) [WX005]	92.19%
